Activity calls are given as the source filed them.
Columns and labels:
Beta-lactamase [1] = molecular target: T1, Beta-lactamase (Salmonella choleraesuis (strain SC-B67), UniProt Q5J463)
Beta-lactamase [2] = molecular target: T2, Beta-lactamase (Pseudomonas aeruginosa, UniProt Q79MP6)
[3] = molecular target: Fructose-bisphosphate aldolase (Mycobacterium tuberculosis, UniProt P9WQA3); test: Fluorescence-based biochemical high throughput dose response assay for inhibitors of the fructose-bisphosphate aldolase (FBA) of M. tuberculosis.; assay type: functional
Protein RecA = molecular target: T3, Protein RecA (Mycobacterium tuberculosis, UniProt P9WHJ3); test: Fluorescence Cell-Free Homogeneous Dose Retest to Identify Inhibitors of RecA-Intein Splicing Activity. [Related pubchem assays (depositor defined):AID2097, AID2223, AID489010, AID492950]; assay type: functional
T3 sequence (P9WHJ3 whole entry): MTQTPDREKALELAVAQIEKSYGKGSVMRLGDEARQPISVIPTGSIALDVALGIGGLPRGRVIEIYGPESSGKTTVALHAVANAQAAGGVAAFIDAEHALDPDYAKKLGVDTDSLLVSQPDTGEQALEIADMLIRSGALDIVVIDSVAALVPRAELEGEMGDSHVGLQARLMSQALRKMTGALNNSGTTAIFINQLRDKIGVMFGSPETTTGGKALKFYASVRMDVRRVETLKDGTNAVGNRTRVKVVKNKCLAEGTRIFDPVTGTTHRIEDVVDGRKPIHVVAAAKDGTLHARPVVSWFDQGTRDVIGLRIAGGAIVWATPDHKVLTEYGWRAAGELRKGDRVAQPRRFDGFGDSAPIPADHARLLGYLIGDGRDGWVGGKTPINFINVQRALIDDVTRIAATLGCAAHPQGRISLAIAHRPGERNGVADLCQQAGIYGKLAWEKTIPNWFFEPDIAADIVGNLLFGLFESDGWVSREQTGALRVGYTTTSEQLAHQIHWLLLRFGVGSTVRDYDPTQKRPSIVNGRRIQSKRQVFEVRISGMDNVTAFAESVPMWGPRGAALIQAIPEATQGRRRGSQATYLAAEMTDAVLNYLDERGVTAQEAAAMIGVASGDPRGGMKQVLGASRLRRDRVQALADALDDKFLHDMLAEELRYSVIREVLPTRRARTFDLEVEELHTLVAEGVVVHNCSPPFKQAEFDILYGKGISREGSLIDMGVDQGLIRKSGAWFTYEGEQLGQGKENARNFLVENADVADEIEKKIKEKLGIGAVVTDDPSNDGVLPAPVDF

[4] = molecular target: T4, Sentrin-specific protease 8 (Homo sapiens, UniProt Q96LD8); assay type: functional
T4 sequence (Q96LD8 whole entry): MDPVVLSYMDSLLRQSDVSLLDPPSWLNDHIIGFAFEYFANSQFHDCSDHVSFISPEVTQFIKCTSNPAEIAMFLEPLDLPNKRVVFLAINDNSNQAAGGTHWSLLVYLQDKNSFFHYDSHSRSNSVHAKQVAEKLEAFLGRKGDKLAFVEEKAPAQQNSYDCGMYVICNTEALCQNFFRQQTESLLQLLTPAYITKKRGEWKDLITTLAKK

[5] = molecular target: T4, Sentrin-specific protease 8; assay type: functional; remark: listed apart in the source
[6] = molecular target: T5, Replicative DNA helicase DnaB (Mycobacterium tuberculosis, UniProt P9WMR3); test: DnaB intein splicing inhibitors, dose response, biochemical, cell-free fluorescence (AID 449749); assay type: functional
T5 sequence (P9WMR3 whole entry): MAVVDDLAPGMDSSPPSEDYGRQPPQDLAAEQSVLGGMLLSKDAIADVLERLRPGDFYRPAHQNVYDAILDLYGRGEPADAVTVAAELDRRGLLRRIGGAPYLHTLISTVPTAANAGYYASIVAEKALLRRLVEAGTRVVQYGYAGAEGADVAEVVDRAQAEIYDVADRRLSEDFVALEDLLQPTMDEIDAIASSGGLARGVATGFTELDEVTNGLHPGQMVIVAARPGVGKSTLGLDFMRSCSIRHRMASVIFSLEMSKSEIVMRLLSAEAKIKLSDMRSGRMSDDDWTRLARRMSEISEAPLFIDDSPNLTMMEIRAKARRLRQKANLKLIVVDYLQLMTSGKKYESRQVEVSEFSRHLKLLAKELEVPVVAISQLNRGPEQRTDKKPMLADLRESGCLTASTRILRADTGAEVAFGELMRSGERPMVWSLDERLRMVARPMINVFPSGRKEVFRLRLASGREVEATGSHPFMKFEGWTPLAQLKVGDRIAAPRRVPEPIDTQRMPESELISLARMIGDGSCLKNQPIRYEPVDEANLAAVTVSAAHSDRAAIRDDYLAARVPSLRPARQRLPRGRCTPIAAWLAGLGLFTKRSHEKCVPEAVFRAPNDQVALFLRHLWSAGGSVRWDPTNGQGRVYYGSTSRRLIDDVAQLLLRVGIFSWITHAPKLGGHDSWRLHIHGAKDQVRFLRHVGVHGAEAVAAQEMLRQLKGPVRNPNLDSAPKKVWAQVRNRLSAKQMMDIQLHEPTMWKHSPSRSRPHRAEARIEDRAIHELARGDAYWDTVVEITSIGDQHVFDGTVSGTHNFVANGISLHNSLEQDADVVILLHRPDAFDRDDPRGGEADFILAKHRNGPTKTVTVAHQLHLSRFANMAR

Cryptococcus neoformans = test: PubChem AID 686997; assay type: functional, organism-based
[7] = Luminescence Cell-Based Dose Retest to Confirm Inhibitors of Cancer Stem Cells. [Related pubchem assays (depositor defined):AID2717, AID2721]; assay type: functional; settings: Homo sapiens
Protein S100-A4 = Protein S100-A4 (Homo sapiens, UniProt P26447); test: human S100A4 peptide interaction inhibition curves – biochemical, fluorescence polarization, cherry-picked hits, dose response (AID 687001); assay type: functional
[8] = molecular target: T6, RNA-binding protein pos-1 (Caenorhabditis elegans, UniProt G5EF15); test: disruptors of C. elegans POS-1 RNA interaction – biochemical, fluorescence polarization, dose response (AID 1964);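 further: purified POS-1 fused to maltose binding protein made in E. coli; potency of compounds blocking POS-1 binding to fluorescent RNA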
T6 sequence (G5EF15 whole entry): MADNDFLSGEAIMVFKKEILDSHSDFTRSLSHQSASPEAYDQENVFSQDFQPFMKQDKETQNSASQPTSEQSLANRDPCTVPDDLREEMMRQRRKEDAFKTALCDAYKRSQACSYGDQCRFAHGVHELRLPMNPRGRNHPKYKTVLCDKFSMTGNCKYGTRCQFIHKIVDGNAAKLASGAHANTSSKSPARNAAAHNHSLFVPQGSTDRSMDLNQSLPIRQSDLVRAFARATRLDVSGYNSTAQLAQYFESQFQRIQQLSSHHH

[9] = molecular target: T7, Zinc finger protein mex-5 (Caenorhabditis elegans, UniProt Q9XUB2); test: potency of MEX-5 RNA-binding blockers – biochemical, C. elegans, fluorescence polarization, dose response (AID 1960)
T7 sequence (Q9XUB2 whole entry): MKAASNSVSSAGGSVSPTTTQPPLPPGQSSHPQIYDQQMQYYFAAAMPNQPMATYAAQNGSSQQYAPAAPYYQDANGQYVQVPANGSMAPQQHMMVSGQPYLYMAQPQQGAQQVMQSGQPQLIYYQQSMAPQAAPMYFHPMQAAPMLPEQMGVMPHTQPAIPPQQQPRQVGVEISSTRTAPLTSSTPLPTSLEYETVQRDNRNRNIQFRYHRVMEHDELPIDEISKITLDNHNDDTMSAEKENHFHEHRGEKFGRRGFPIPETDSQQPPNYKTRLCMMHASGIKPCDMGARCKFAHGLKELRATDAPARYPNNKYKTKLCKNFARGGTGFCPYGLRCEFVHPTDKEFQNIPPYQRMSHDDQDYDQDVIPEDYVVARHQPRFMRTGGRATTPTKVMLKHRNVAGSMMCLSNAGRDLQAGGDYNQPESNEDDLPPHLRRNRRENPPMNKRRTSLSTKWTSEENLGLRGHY

[10] = molecular target: T8, Sentrin-specific protease 1 (Homo sapiens, UniProt Q9P0U3); test: Dose response confirmation of small molecule inhibitors of the catalytic domain of the SUMO protease, SENP1 in a FRET assay.; assay type: functional; settings: read-out: IC50_Mean
[11] = molecular target: T8, Sentrin-specific protease 1; test: SENP1 catalytic domain blockers, concentration series – biochemical, kinetic FRET, dose response (AID 651697); assay type: functional; settings: read-out: IC50_Mean
Vero = test: viability loss in Vero cells – cell-based, plate reader, cherry-pick samples, cytotoxicity control, dose response (AID 687020); assay type: functional; settings: Chlorocebus sabaeus
[12] = general mammalian cell viability loss – inhibitor set, cherry-pick, set 2, cytotoxicity control for miR-122 modulator project, dose response (AID 720697); assay type: functional, cell-based
[13] = general mammalian cell viability loss – activator set, cherry-pick, cytotoxicity control for miR-122 modulator project, dose response (AID 720690); assay type: functional, cell-based;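 further: HEK293T human cells scored for general mammalian cytotoxicity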
[14] = activation of miR-122 Renilla sensor silencing – cell-based, Huh7 psiCHECK-miR122, Renilla luciferase, cherry-picked, dose response (AID 651956); assay type: functional;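 further: huh7 hepatoma cells stably carrying a psiCHECK-2 miR-122 sensor plasmid; renilla luciferase signal reporting endogenous miR-122 activity after 48 h compound exposure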
[15] = molecular target: Botulinum neurotoxin type F (Clostridium botulinum, UniProt P30996); test: High-throughput multiplex microsphere dose response for inhibitors of toxin protease, specifically Botulinum neurotoxin light chain F protease, compounds from Cherry Pick 02.; assay type: functional; settings: read-out: EC50_MICROM
[16] = Trypanosoma cruzi growth suppression in host cells – NIH3T3 host cells, beta-gal luminescence, confirmation (AID 2044); assay type: functional, cell-based;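 further: intracellular parasites grown in NIH/3T3 mouse fibroblasts as host cells; luminescent beta-galactosidase reporter signal from transgenic T. cruzi replicating inside host cells; inhibitors lower the luminescence signal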
[17] = molecular target: T9, Long-chain-fatty-acid--AMP ligase FadD28 (Mycobacterium tuberculosis, UniProt P9WQ59); test: Fluorescence polarization aasay to screen for inhibitors that compete for the binding of FadD28 to a bisubstrate Measured in Biochemical System Using Plate Reader - 2147-01_Inhibitor_Dose_CherryPick_Activity.; assay type: functional, Mycobacterium tuberculosis H37Rv
T9 sequence (P9WQ59 whole entry): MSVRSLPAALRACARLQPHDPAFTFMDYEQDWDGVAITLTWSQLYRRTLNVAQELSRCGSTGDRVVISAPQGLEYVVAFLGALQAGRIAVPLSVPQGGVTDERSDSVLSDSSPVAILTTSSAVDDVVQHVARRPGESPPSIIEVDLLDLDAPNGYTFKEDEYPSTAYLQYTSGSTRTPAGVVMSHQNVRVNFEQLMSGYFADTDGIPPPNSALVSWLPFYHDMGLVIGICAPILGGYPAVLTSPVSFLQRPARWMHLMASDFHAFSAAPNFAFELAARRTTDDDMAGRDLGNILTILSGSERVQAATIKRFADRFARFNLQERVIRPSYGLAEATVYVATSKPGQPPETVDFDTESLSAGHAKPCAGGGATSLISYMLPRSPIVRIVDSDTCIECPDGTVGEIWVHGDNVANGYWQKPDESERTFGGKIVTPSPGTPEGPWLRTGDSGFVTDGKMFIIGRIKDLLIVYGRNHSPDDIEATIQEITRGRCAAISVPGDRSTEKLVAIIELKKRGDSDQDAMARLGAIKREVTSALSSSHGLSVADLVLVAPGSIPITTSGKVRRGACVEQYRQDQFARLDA

[18] = NIH3T3 cell viability loss – ATP luminescence, mouse fibroblasts, counter-screen, dose response (AID 2010); assay type: functional, cell-based;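 further: cells exposed to compound for about 90 hours before reading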
Beta-lactamase [19] = molecular target: T2, Beta-lactamase; test: inhibition of IMP-1 beta-lactamase activity – biochemical, epi-absorbance, selectivity assay for VIM-2 inhibitor project, dose response (AID 1920)
Beta-lactamase [20] = molecular target: T2, Beta-lactamase; test: […] counterscreen for selective VIM-2 inhibitors: dose response biochemical high throughput screening assay to identify inhibitors of IMP-1 metallo-beta-lactamase.
[21] = molecular target: FAD-linked sulfhydryl oxidase ALR (Homo sapiens, UniProt P55789); test: ALR-catalysed DTT oxidation blockers – biochemical, H2O2 detection, luminescence, cherry-pick, dose response (AID 493248)
Beta-lactamase [22] = molecular target: T1, Beta-lactamase; test: Epi-absorbance-based counterscreen for selective VIM-2 inhibitors: dose response biochemical high throughput screening assay to identify inhibitors of TEM-1 serine-beta-lactamase.

T2 sequence (Q79MP6 whole entry): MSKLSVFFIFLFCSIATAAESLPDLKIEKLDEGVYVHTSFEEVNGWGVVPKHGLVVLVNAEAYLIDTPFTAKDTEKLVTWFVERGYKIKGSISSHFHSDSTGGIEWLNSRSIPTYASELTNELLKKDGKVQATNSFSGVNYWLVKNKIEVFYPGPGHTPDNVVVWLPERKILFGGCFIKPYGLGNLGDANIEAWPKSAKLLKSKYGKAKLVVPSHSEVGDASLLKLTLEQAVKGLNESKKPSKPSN
T8 sequence (Q9P0U3 whole entry, the tested form may be a part): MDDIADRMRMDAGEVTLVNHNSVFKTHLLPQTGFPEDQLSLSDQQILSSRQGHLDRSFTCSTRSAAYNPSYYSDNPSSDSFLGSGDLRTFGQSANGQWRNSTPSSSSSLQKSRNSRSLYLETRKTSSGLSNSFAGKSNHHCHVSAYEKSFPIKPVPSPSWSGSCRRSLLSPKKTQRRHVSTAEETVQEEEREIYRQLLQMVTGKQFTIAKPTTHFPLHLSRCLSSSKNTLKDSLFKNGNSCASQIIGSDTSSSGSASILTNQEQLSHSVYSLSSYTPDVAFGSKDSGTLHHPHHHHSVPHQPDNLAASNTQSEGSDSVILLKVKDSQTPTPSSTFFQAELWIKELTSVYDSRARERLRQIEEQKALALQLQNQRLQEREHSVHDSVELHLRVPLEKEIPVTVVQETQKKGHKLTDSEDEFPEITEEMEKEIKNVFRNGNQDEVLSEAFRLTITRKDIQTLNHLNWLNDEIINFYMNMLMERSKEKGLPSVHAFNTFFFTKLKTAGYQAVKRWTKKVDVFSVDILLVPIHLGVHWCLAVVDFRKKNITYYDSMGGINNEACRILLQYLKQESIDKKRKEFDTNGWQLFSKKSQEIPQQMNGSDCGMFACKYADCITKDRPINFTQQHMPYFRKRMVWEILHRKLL
T1 sequence (Q5J463 whole entry): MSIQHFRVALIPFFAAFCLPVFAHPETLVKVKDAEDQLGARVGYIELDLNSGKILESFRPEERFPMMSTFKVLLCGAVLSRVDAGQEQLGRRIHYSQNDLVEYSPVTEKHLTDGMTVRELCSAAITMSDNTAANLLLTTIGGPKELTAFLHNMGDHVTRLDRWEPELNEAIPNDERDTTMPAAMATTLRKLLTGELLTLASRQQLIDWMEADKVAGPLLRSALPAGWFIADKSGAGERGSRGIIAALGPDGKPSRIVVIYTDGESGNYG
Chain of Protein S100-A4 (P26447 whole entry, the tested form may be a part): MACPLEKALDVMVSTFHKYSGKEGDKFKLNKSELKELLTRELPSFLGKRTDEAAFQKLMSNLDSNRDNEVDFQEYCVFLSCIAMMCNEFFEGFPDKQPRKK
Chain of Botulinum neurotoxin type F (P30996 1-436 limits assumed): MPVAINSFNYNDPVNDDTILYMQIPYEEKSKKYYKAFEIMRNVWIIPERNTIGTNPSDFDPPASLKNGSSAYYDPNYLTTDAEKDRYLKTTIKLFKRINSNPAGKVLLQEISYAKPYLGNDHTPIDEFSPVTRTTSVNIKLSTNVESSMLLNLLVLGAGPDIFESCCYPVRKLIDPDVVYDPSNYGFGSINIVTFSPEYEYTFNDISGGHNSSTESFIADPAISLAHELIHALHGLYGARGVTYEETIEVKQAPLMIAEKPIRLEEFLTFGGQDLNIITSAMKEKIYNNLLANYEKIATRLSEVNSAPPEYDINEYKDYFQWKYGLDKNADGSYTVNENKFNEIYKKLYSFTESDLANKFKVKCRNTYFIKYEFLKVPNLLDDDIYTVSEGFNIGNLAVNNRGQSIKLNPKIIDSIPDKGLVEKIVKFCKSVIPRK
Chain of FAD-linked sulfhydryl oxidase ALR (P55789 whole entry): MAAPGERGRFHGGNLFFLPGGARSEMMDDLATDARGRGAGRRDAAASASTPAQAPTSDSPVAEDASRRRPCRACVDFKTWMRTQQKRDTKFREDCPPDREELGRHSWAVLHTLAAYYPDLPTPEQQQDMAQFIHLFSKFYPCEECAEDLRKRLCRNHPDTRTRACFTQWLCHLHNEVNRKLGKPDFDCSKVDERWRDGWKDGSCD
Chain of Fructose-bisphosphate aldolase (P9WQA3 whole entry): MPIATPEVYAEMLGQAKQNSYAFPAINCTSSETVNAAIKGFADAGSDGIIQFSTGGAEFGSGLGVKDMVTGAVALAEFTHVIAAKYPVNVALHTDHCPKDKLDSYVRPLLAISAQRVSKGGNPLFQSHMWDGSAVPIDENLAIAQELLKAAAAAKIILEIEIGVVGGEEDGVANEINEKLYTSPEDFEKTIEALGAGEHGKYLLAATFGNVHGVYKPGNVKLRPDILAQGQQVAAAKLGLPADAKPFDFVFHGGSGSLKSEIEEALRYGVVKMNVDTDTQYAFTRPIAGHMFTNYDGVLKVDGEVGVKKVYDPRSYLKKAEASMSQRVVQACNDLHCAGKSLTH

## CCc1cc(=O)oc2cc(C)c(CN3CCCC3)c(O)c12
Beta-lactamase [1]
  IC50: > 59.6 µM (inactive)
Beta-lactamase [2]
  IC50: > 59.6 µM (inactive)

## Cc1ccc2c(C)cc[n+](CCCS(=O)(=O)[O-])c2c1
[3]
  IC50: 5.92 µM (active)

## COc1cc(C(c2c(C)n[nH]c2O)c2c(C)n[nH]c2O)ccc1OS(=O)(=O)c1ccccc1
Protein RecA
  EC50: 0.217 µM (active)
[4]
  IC50: 45.2 µM (active)
[5]
  IC50: 72.9 µM (inactive)
[6]
  AC50: 0.402 µM (active)

## COc1ccc(C(=O)NC(=S)Nc2ccccc2N2CCCCC2)cc1[N+](=O)[O-]
Cryptococcus neoformans
  AC50: > 70 µM (inactive)
[7]
  AC50: 0.549 µM (active)

## COc1cccc2c1C(=O)c1c(O)c3c(c(O)c1C2=O)CC(O)(C(C)=O)CC3OC1CC(O)C(O)C(C)O1 (stereo unspecified)
Protein S100-A4
  AC50: 0.395 µM (active)

## COc1ccc2c(c1)c1nc3ccccc3nc1n2CCn1c(=O)oc2ccccc21
[8]
  EC50: > 300 µM (inconclusive)
[9]
  EC50: > 300 µM (inconclusive)
[10]
  IC50: 20.9 µM (inactive)
[11]
  IC50: 38.6 µM (inactive)

## CCCCNC(=O)O[C@H]1C[C@@H]2CCN3C(=O)CCC[C@H]([C@H]1Cc1ccccc1)[C@H]23
Vero
  AC50: 38.6 µM (active)

## C[C@@H]1CN([C@H](C)CO)C(=O)c2cc(NC(=O)Nc3cccc4ccccc34)ccc2O[C@@H](C)CCCCO[C@@H]1CN(C)Cc1ccc2c(c1)OCO2
[12]
  AC50: < 0.195 µM (active)
[13]
  AC50: 22 µM (active)
[14]
  AC50: 9.62 µM (active)

## CCc1cccc2c(C(=O)COC(=O)c3ccc(O)cc3)c[nH]c12
[15]
  EC50: > 20 µM (inactive)
[16]
  EC50: 2.89 µM (active)
[17]
  AC50: 26.2 µM (active)
[18]
  EC50: 9.37 µM (active)

## COc1cccc(-n2c(S)nnc2CNC(=O)OC(C)(C)C)c1
Beta-lactamase [19]
  IC50: > 59.6 µM (inactive)
Beta-lactamase [20]
  IC50: > 59.6 µM (inactive)
[21]
  AC50: 12.1 µM (active)
Beta-lactamase [22]
  IC50: > 59.6 µM (inactive)

Reference: ChEMBL document CHEMBL1201862, “PubChem BioAssay data set” (2004)
